US11970479B2, “3-(1H-pyrazol-4-yl)pyridine allosteric modulators of the M4 muscarinic acetylcholine receptor” (Merck Sharp & Dohme LLC, priority 2018, dated 2024)

Target: T1, human M4 muscarinic acetylcholine receptor (Homo sapiens, UniProt P08173)
T1 construct: expressed in transfected cells
T1 sequence (P08173 1-479): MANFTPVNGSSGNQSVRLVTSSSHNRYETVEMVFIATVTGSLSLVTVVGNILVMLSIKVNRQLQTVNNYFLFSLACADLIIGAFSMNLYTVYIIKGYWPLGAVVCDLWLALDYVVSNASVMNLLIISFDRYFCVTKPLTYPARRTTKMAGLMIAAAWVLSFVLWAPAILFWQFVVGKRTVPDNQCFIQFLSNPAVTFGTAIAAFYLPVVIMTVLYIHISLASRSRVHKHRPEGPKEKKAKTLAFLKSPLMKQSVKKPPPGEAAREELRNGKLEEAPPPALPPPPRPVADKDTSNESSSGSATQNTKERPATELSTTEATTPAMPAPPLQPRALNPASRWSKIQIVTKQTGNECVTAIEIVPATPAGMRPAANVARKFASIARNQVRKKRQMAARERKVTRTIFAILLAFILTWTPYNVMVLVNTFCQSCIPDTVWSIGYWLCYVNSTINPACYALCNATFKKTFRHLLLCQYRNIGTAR
Test: human FLIPR-based M4 PAM assay (CHO-K1 cells with human M4 receptor and Gαqi5, calcium dye fluorescence, EC20 acetylcholine)
Type: cell-based
Details: inflection point (IP) of the dose response curve, human M4 receptor/Gαqi5, acetylcholine at 20% of maximum response, read-out: M4PAM Hu IP
Method: (§1) In a typical experiment the M4 muscarinic acetylcholine receptor modulating activity of the compounds of the present invention was determined in accordance with the following experimental method. CHO-K1 cells stably transfected with human M4 receptor and chimeric G-protein Gαqi5 (Coward P, et al., Analytical Biochemistry, 270:242-248 (1999)) are thawed from liquid N2 storage, resuspended in growth medium, plated in black, clear bottom 384 well plates, and incubated 16-20 hours at 37° C., 5% CO2. On the day of assay, growth medium is removed, the cells are washed 2 times with wash buffer, and cells are incubated in dye loading buffer at 37° C., 5% CO2 for ˜1 hour. Following dye loading the cell plates are placed in a FLIPR Tetra instrument and while monitoring dye fluorescence (excitation […]), 10 uL of test substance at increasing concentrations is added, and fluorescence values are recorded for 4 min. Next, 10 uL of acetylcholine is added (final concentration calculated so as to achieve 20% of the maximum acetycholine response), and the fluorescence reading is continued for 3.5 min. In some cases, a third addition of acetylcholine (final concentration calculated to achieve 70% of the maximal acetylcholine response) is performed. The resulting dose response curves are fit to a 4 parameter logistic equation and the final result is determined as the inflection point (IP) of the curve
as §1, with “CHO-K1” for “In a typical experiment the M4 muscarinic acetylcholine receptor modulating activity of the compounds of the present invention was determined in accordance with the following experimental method. CHO-K1”, “Gαqi5” for “Gαqi5 (Coward P, et al., Analytical Biochemistry, 270:242-248 (1999))”, “performed.” for “performed. The resulting dose response curves are fit to a 4 parameter logistic equation and the final result is determined as the inflection point (IP) of the curve”

Row | SMILES | EC50 [nM]
1 | COc1cc2ccc(-c3nc(C)ccc3-c3cnn(CC4(C)CCOC4)c3)cc2nn1 (single isomer, unassigned) [Example 98, 3-methoxy-7-(6-methyl-3-{1-[(3-methyltetrahydrofuran-3-yl)methyl]-1H-pyrazol-4-yl}pyridin-2-yl)cinnoline] | 57
2 | COc1cc2ccc(-c3nc(C)ccc3-c3cnn(CC4(C)CCOC4)c3)cc2nn1 (single isomer, unassigned) [Example 99, 3-methoxy-7-(6-methyl-3-{1-[(3-methyltetrahydrofuran-3-yl)methyl]-1H-pyrazol-4-yl}pyridin-2-yl)cinnoline] | 169
3 | COc1cc2ccc(-c3ncccc3-c3cnn(CC4(C)CCCCC4)c3)cc2nn1 [Example 1, 3-methoxy-7-(3-{1-[(1-methylcyclohexyl)methyl]-1H-pyrazol-4-yl}pyridin-2-yl)cinnoline] | 22
4 | Cc1ccc(-c2cnn(CCC(C)(C)F)c2)c(-c2ccc3cccnc3c2)n1 [Example 2, 7-(3-(1-(3-fluoro-3-methylbutyl)-1H-pyrazol-4-yl)-6-methylpyridin-2-yl)quinoline] | 70
5 | COc1cc2ccc(-c3nc(C)ccc3-c3cnn(CCC(C)(C)F)c3)cc2nn1 [Example 3, 7-{3-[1-(3-fluoro-3-methylbutyl)-1H-pyrazol-4-yl]-6-methylpyridin-2-yl}-3-methoxycinnoline] | 57
6 | Cc1ccc(-c2cnn(Cc3ccccc3)c2)c(-c2ccc3cccnc3c2)n1 [Example 4, 7-[3-(1-benzyl-1H-pyrazol-4-yl)-6-methylpyridin-2-yl]quinoline] | 91
7 | COc1cc2ccc(-c3nc(C)ccc3-c3cnn(Cc4ccccc4)c3)cc2nn1 [Example 5, 7-[3-(1-benzyl-1H-pyrazol-4-yl)-6-methylpyridin-2-yl]-3-methoxycinnoline] | 93
8 | Cc1ccc(-c2cnn(CC(C)(C)C)c2)c(-c2ccc3cccnc3c2)n1 [Example 6, 7-{3-[1-(2,2-dimethylpropyl)-1H-pyrazol-4-yl]-6-methylpyridin-2-yl}quinoline] | 19
9 | Cc1ccc(-c2cnn(CC3(C)CCCCC3)c2)c(-c2ccc3cc(C(F)(F)F)cnc3c2)n1 [Example 7, 7-(6-methyl-3-{1-[(1-methylcyclohexyl)methyl]-1H-pyrazol-4-yl}pyridin-2-yl)-3-(trifluoromethyl)quinoline] | 137
10 | COc1cc2ccc(-c3nc(C)ccc3-c3cnn(CC4CCC4)c3)cc2nn1 [Example 8, 7-{3-[1-(cyclobutylmethyl)-1H-pyrazol-4-yl]-6-methylpyridin-2-yl}-3-methoxycinnoline] | 72
11 | Cc1ccc(-c2cnn(CC34CC(C3)C4)c2)c(-c2ccc3cccnc3c2)n1 [Example 9, 7-{3-[1-(bicyclo[1.1.1]pent-1-ylmethyl)-1H-pyrazol-4-yl]-6-methylpyridin-2-yl}quinoline] | 21
12 | COc1cc2ccc(-c3nc(C)ccc3-c3cnn(CC45CC(C4)C5)c3)cc2nn1 [Example 10, 7-{3-[1-(bicyclo[1.1.1]pent-1-ylmethyl)-1H-pyrazol-4-yl]-6-methylpyridin-2-yl}-3-methoxycinnoline] | 20
13 | Cc1ccc(-c2cnn(CCC(C)C(F)(F)F)c2)c(-c2ccc3cccnc3c2)n1 (stereo not drawn) [Example 11, 7-{6-methyl-3-[1-(4,4,4-trifluoro-3-methylbutyl)-1H-pyrazol-4-yl]pyridin-2-yl}quinoline] | 89
14 | Cc1ccc(-c2cnn(CC34CC5CC(CC(C5)C3)C4)c2)c(-c2ccc3cccnc3c2)n1 [Example 12, 7-(3-(1-(((3r,5r,7r)-adamantan-1-yl)methyl)-1H-pyrazol-4-yl)-6-methylpyridin-2-yl)quinoline] | 80
15 | COc1cc2ccc(-c3nc(C)ccc3-c3cnn(CC45CC6CC(CC(C6)C4)C5)c3)cc2nn1 [Example 13, 7-(3-(1-(((3r,5r,7r)-adamantan-1-yl)methyl)-1H-pyrazol-4-yl)-6-methylpyridin-2-yl)-3-methoxycinnoline] | 37
16 | Cc1ccc(-c2cnn(CC34CCC(CC3)CC4)c2)c(-c2ccc3cccnc3c2)n1 [Example 14, 7-{3-[1-(bicyclo[2.2.2]oct-1-ylmethyl)-1H-pyrazol-4-yl]-6-methylpyridin-2-yl}quinoline] | 20
17 | COc1cc2ccc(-c3nc(C)ccc3-c3cnn(CC45CCC(CC4)CC5)c3)cc2nn1 [Example 15, 7-{3-[1-(bicyclo[2.2.2]oct-1-ylmethyl)-1H-pyrazol-4-yl]-6-methylpyridin-2-yl}-3-methoxycinnoline] | 14
18 | Cc1ccc(-c2cnn(CC3CCC(F)(F)CC3)c2)c(-c2ccc3cccnc3c2)n1 [Example 16, 7-(3-{1-[(4,4-difluorocyclohexyl)methyl]-1H-pyrazol-4-yl}-6-methylpyridin-2-yl)quinoline] | 124
19 | COc1cc2ccc(-c3nc(C)ccc3-c3cnn(CC4CCC(F)(F)CC4)c3)cc2nn1 [Example 17, 7-(3-{1-[(4,4-difluorocyclohexyl)methyl]-1H-pyrazol-4-yl}-6-methylpyridin-2-yl)-3-methoxycinnoline] | 56
20 | Cc1ccc(-c2cnn(CC3CCC(F)CC3)c2)c(-c2ccc3cccnc3c2)n1 (stereo not drawn) [Example 18, 7-(3-{1-[(4-fluorocyclohexyl)methyl]-1H-pyrazol-4-yl}-6-methylpyridin-2-yl)quinoline] | 88
21 | COc1cc2ccc(-c3nc(C)ccc3-c3cnn(CC4CCC(F)CC4)c3)cc2nn1 (stereo not drawn) [Example 19, 7-(3-{1-[(4-fluorocyclohexyl)methyl]-1H-pyrazol-4-yl}-6-methylpyridin-2-yl)-3-methoxycinnoline] | 43
22 | Cc1ccc(-c2cnn(Cc3ccccc3F)c2)c(-c2ccc3cccnc3c2)n1 [Example 20, 7-{3-[1-(2-fluorobenzyl)-1H-pyrazol-4-yl]-6-methylpyridin-2-yl}quinoline] | 92
23 | COc1cc2ccc(-c3nc(C)ccc3-c3cnn(Cc4ccccc4F)c3)cc2nn1 [Example 21, 7-{3-[1-(2-fluorobenzyl)-1H-pyrazol-4-yl]-6-methylpyridin-2-yl}-3-methoxycinnoline] | 62
24 | COc1cc2ccc(-c3nc(C)ccc3-c3cnn(CC4(C)CCC(F)(F)CC4)c3)cc2nn1 [Example 22, 7-(3-{1-[(4,4-difluoro-1-methylcyclohexyl)methyl]-1H-pyrazol-4-yl}-6-methylpyridin-2-yl)-3-methoxycinnoline] | 16
25 | COc1cc2ccc(-c3nc(C)ccc3-c3cnn(CC4(C)CCCO4)c3)cc2nn1 (stereo not drawn) [Example 23, 3-methoxy-7-(6-methyl-3-{1-[(2-methyltetrahydrofuran-2-yl)methyl]-1H-pyrazol-4-yl}pyridin-2-yl)cinnoline] | 111
26 | COc1cc2ccc(-c3nc(C)ccc3-c3cnn(CC4(C(F)(F)F)CCC4)c3)cc2nn1 [Example 24, 3-methoxy-7-[6-methyl-3-(1-{[1-(trifluoromethyl)cyclobutyl]methyl}-1H-pyrazol-4-yl)pyridin-2-yl]cinnoline] | 151
27 | COc1cc2ccc(-c3nc(C)ccc3-c3cnn(CC4(C)CCC4)c3)cc2nn1 [Example 25, 3-methoxy-7-(6-methyl-3-{1-[(1-methylcyclobutyl)methyl]-1H-pyrazol-4-yl}pyridin-2-yl)cinnoline] | 46
28 | COc1cc2ccc(-c3nc(C)ccc3-c3cnn(CC4(C)CC4)c3)cc2nn1 [Example 26, 3-methoxy-7-(6-methyl-3-{1-[(1-methylcyclopropyl)methyl]-1H-pyrazol-4-yl}pyridin-2-yl)cinnoline] | 70
29 | N#Cc1ccc(-c2cnn(CC3(C(F)F)CC3)c2)c(-c2ccc3cccnc3c2)n1 [Example 27, 5-(1-{[1-(difluoromethyl)cyclopropyl]methyl}-1H-pyrazol-4-yl)-6-quinolin-7-ylpyridine-2-carbonitrile] | 33
30 | COc1cc2ccc(-c3nc(C#N)ccc3-c3cnn(CC4(C(F)F)CC4)c3)cc2nn1 [Example 28, 5-(1-{[1-(difluoromethyl)cyclopropyl]methyl}-1H-pyrazol-4-yl)-6-(3-methoxycinnolin-7-yl)pyridine-2-carbonitrile] | 44
